From patent EP0103877A1, “Phosphate derivatives, process for preparation thereof and pharmaceutical compositions of the same” (FUJISAWA PHARMACEUTICAL CO., LTD., priority 1982, dated 1984)

Tested on: Fibrosarcoma Meth A
Test: Anti-tumor activity against Fibrosarcoma Meth A in mice (mean survival time, T/C)
Type: in vivo
Settings: T/C x 100 of mean survival time (medicated vs control group); female BALB/c mice inoculated intrapleurally with 5 x 10^5 Meth A cells; compound injected into pleural cavity, 100 pg/0.05 ml/mouse three times (before 14 days, after 1 hour and after 3 days of tumor implantation)
Protocol: Groups of eight female BALB/c mice, aged 8-9 weeks and weighing 18.0-22.5 g were used.
Fibrosarcoma Meth A (hereinafter referred to as Meth A) was successively transferred every 7 days into BALB/c mice by intraperitoneal inoculation of the ascites cells thereof and the Meth A in the ascites cells as harvested 6 or 7 days after the inoculation was used as tumor cells.
Each of the BALB/c mice was inoculated intrapleurally with 5 x 10^5 Meth A cells in 0.1 ml Hanks solution.
Test compound was dissolved in phosphate buffer saline solution, and was injected into pleural cavity to each of the mice in doses of 100 pg/0.05 ml/mouse three times, i.e. before 14 days, after 1 hour and after 3 days of tumor implantation.
The control group was given with a vehicle alone in the same way.
The antitumor activity of the test compound was estimated by comparing mean survival time of the two groups. • T : Mean survival time of the medicated group • C : Mean survival time of the control group

| Compound | Anti-tumor activity *a (%) |
| --- | --- |
| CCCCCCCCCCCCCCCCCCOCC(COP(=O)([O-])OCC[N+](C)(C)C)OC (racemic) [Control Compound, (rac)-1-O-Octadecyl-2-0-methyl-glycerol-3-phosphorylcholine, reference compound] | 302.8 |
| CCCCCCCCCCCCCCCCCCO[C@@H]1[C@@H](OC)[C@@H](OC)O[C@@H]1COP(=O)([O-])OCC[N+](C)(C)C [Ex 4-(3), Methyl 2-0-methyl-3-0-octadecyl-a-D-xylofuranoside 5-(choline phosphate)] | 408 |
| CCCCCCCCCCCCCCCCCCO[C@H]1[C@@H](O)[C@H](OC)O[C@@H]1COP(=O)([O-])OCC[N+](C)(C)C [Ex 6-(7), Methyl 3-O-octadecyl-β-D-ribofuranoside 5-(choline phosphate)] | 383 |
